Data: PMC4467398, “Preclinical antitumor activity of ST7612AA1: a new oral thiol-based histone deacetylase (HDAC) inhibitor” (Oncotarget, 2014)

Test system: DOHH2 and TMD8 DLBCL cells
Experiment: Gene expression profiling (HumanHT-12 v4 BeadChip, limma), ST7612AA1 300 nM 8 hrs vs DMSO
Type: cell-based, human
Settings: 300 nM 8 hrs

## CC(=O)SCCCCC[C@H](NC(=O)[C@H]1CCC(=O)N1)C(=O)Nc1ccccc1 [ST7612AA1]
  AveExpr.ST7612 1999-08-31 (probe ILMN_1659953): 8.50E-01
  AveExpr.ST7612 (probe ILMN_1816244): 7.08E-01
  AveExpr.ST7612 (probe ILMN_1827736): 8.76E-01
  AveExpr.ST7612 (probe ILMN_1909886): 7.98E-01
  AveExpr.ST7612 ABCA7 (probe ILMN_1743205): 7.64E-01
  AveExpr.ST7612 ADARB1 (probe ILMN_1679797): 7.60E-01
  AveExpr.ST7612 ALDH2 (probe ILMN_1793859): 8.03E-01
  AveExpr.ST7612 ALOX5 (probe ILMN_1680996): 8.46E-01
  AveExpr.ST7612 AMOT (probe ILMN_1792409): 7.65E-01
  AveExpr.ST7612 APAF1 (probe ILMN_1659463): 8.78E-01
  AveExpr.ST7612 APLP1 (probe ILMN_1763834): 8.17E-01
  AveExpr.ST7612 ARL6IP1 (probe ILMN_1708416): 6.93E-01
  AveExpr.ST7612 ATG2A (probe ILMN_1756006): 8.92E-01
  AveExpr.ST7612 ATP6V0C (probe ILMN_1773849): 8.22E-01
  AveExpr.ST7612 ATP6V1G2 (probe ILMN_1654541): 8.47E-01
  AveExpr.ST7612 ATP7B (probe ILMN_1722056): 8.88E-01
  AveExpr.ST7612 AVPI1 (probe ILMN_1671731): 8.94E-01
  AveExpr.ST7612 AZI1 (probe ILMN_1746206): 7.59E-01
  AveExpr.ST7612 BIK (probe ILMN_1770505): 7.57E-01
  AveExpr.ST7612 BLVRB (probe ILMN_1797793): 8.74E-01
  AveExpr.ST7612 BNIP3L (probe ILMN_1718961): 8.34E-01
  AveExpr.ST7612 BPHL (probe ILMN_1657746): 8.91E-01
  AveExpr.ST7612 C3orf34 (probe ILMN_1665217): 6.96E-01
  AveExpr.ST7612 C4orf32 (probe ILMN_1700257): 8.83E-01
  AveExpr.ST7612 C12orf52 (probe ILMN_1667857): 6.98E-01
  AveExpr.ST7612 C13orf15 (probe ILMN_1658494): 7.74E-01
  AveExpr.ST7612 C14orf173 (probe ILMN_2393450): 7.70E-01
  AveExpr.ST7612 C14orf179 (probe ILMN_1756877): 7.81E-01
  AveExpr.ST7612 CA2 (probe ILMN_2199439): 7.93E-01
  AveExpr.ST7612 CAMLG (probe ILMN_1714599): 7.30E-01
  AveExpr.ST7612 CASC4 (probe ILMN_2325574): 6.85E-01
  AveExpr.ST7612 CBX7 (probe ILMN_1657361): 7.49E-01
  AveExpr.ST7612 CCDC24 (probe ILMN_1718771): 6.89E-01
  AveExpr.ST7612 CCDC92 (probe ILMN_1731107): 8.05E-01
  AveExpr.ST7612 CD74 (probe ILMN_1761464): 8.47E-01
  AveExpr.ST7612 CD74 (probe ILMN_2379644): 7.27E-01
  AveExpr.ST7612 CDC2L6 (probe ILMN_1676891): 6.96E-01
  AveExpr.ST7612 CDC42EP5 (probe ILMN_1774982): 8.75E-01
  AveExpr.ST7612 CDK2AP2 (probe ILMN_1690653): 8.01E-01
  AveExpr.ST7612 CECR1 (probe ILMN_1751851): 8.43E-01
  AveExpr.ST7612 CLCC1 (probe ILMN_1671933): 8.48E-01
  AveExpr.ST7612 CLIC4 (probe ILMN_2063586): 7.49E-01
  AveExpr.ST7612 CMTM8 (probe ILMN_1710124): 7.00E-01
  AveExpr.ST7612 COTL1 (probe ILMN_1788283): 6.87E-01
  AveExpr.ST7612 CRIP1 (probe ILMN_1656920): 8.56E-01
  AveExpr.ST7612 CRYM (probe ILMN_1779241): 8.32E-01
  AveExpr.ST7612 CSRP1 (probe ILMN_1811921): 7.01E-01
  AveExpr.ST7612 CSTB (probe ILMN_1761797): 8.06E-01
  AveExpr.ST7612 CTSB (probe ILMN_2359742): 8.56E-01
  AveExpr.ST7612 CXADR (probe ILMN_1796925): 8.18E-01
  AveExpr.ST7612 CXorf57 (probe ILMN_1703279): 8.25E-01
  AveExpr.ST7612 CYB5R1 (probe ILMN_1729237): 7.59E-01
  AveExpr.ST7612 CYB5R3 (probe ILMN_1740441): 7.06E-01
  AveExpr.ST7612 CYP2R1 (probe ILMN_2119774): 7.88E-01
  AveExpr.ST7612 DEF8 (probe ILMN_1767509): 8.37E-01
  AveExpr.ST7612 DGCR6L (probe ILMN_3245688): 7.47E-01
  AveExpr.ST7612 DNMT3B (probe ILMN_1794692): 8.14E-01
  AveExpr.ST7612 DSTN (probe ILMN_1706426): 7.52E-01
  AveExpr.ST7612 DYNC1H1 (probe ILMN_1780302): 6.97E-01
  AveExpr.ST7612 DYNLL2 (probe ILMN_1772796): 8.61E-01
  AveExpr.ST7612 DYRK3 (probe ILMN_2400322): 6.97E-01
  AveExpr.ST7612 DYRK3 (probe ILMN_2400326): 8.26E-01
  AveExpr.ST7612 ECHS1 (probe ILMN_1718132): 7.78E-01
  AveExpr.ST7612 EGR1 (probe ILMN_1762899): 8.42E-01
  AveExpr.ST7612 ELOF1 (probe ILMN_1723185): 7.14E-01
  AveExpr.ST7612 ENC1 (probe ILMN_1779147): 7.93E-01
  AveExpr.ST7612 ENO2 (probe ILMN_1765796): 7.11E-01
  AveExpr.ST7612 ERRFI1 (probe ILMN_1665510): 7.44E-01
  AveExpr.ST7612 ESAM (probe ILMN_1668092): 7.54E-01
  AveExpr.ST7612 F11R (probe ILMN_2342033): 8.81E-01
  AveExpr.ST7612 FAM65A (probe ILMN_1680037): 7.70E-01
  AveExpr.ST7612 FAM116B (probe ILMN_1659029): 7.74E-01
  AveExpr.ST7612 FAM120B (probe ILMN_1679641): 7.62E-01
  AveExpr.ST7612 FAM149B1 (probe ILMN_3245452): 7.21E-01
  AveExpr.ST7612 FAM167A (probe ILMN_3248511): 7.13E-01
  AveExpr.ST7612 FBXO18 (probe ILMN_1729430): 7.97E-01
  AveExpr.ST7612 FCGRT (probe ILMN_1705302): 6.92E-01
  AveExpr.ST7612 FGD2 (probe ILMN_2115005): 7.14E-01
  AveExpr.ST7612 FGF9 (probe ILMN_1762531): 7.84E-01
  AveExpr.ST7612 FHL1 (probe ILMN_1805842): 7.76E-01
  AveExpr.ST7612 FLJ22795 (probe ILMN_2150802): 8.56E-01
  AveExpr.ST7612 FOXC1 (probe ILMN_1738401): 8.63E-01
  AveExpr.ST7612 FOXO1 (probe ILMN_1738816): 8.61E-01
  AveExpr.ST7612 FOXO4 (probe ILMN_1712095): 6.93E-01
  AveExpr.ST7612 FSD1 (probe ILMN_1813490): 7.25E-01
  AveExpr.ST7612 FUCA1 (probe ILMN_1752728): 8.57E-01
  AveExpr.ST7612 G6PD (probe ILMN_1697559): 6.93E-01
  AveExpr.ST7612 GABARAPL2 (probe ILMN_1796458): 7.62E-01
  AveExpr.ST7612 GAMT (probe ILMN_1756469): 8.74E-01
  AveExpr.ST7612 GATM (probe ILMN_1729180): 7.75E-01
  AveExpr.ST7612 GCH1 (probe ILMN_1812759): 7.11E-01
  AveExpr.ST7612 GOLGB1 (probe ILMN_1747935): 7.13E-01
  AveExpr.ST7612 GPT2 (probe ILMN_1684158): 8.12E-01
  AveExpr.ST7612 GRN (probe ILMN_1724250): 8.24E-01
  AveExpr.ST7612 HABP4 (probe ILMN_2107991): 7.82E-01
  AveExpr.ST7612 HAGH (probe ILMN_1772731): 8.84E-01
  AveExpr.ST7612 HERC1 (probe ILMN_1786211): 7.40E-01
  AveExpr.ST7612 HERPUD1 (probe ILMN_2374159): 8.50E-01
  AveExpr.ST7612 HEY1 (probe ILMN_1788203): 8.91E-01
  AveExpr.ST7612 HEY2 (probe ILMN_1682034): 7.56E-01
  AveExpr.ST7612 HIST1H1C (probe ILMN_1757406): 8.24E-01
  AveExpr.ST7612 HIST2H2AA3 (probe ILMN_2144426): 8.03E-01
  AveExpr.ST7612 HLA-DPA1 (probe ILMN_1772218): 8.12E-01
  AveExpr.ST7612 HLA-DQA1 (probe ILMN_1808405): 8.25E-01
  AveExpr.ST7612 HLA-DRB4 (probe ILMN_1752592): 7.27E-01
  AveExpr.ST7612 HLA-E (probe ILMN_1765258): 8.07E-01
  AveExpr.ST7612 HLTF (probe ILMN_1673820): 7.48E-01
  AveExpr.ST7612 HOOK2 (probe ILMN_1682147): 7.36E-01
  AveExpr.ST7612 HSPA1B (probe ILMN_1660436): 7.16E-01
  AveExpr.ST7612 ID1 (probe ILMN_1664861): 7.75E-01
  AveExpr.ST7612 IFFO1 (probe ILMN_2348268): 8.07E-01
  AveExpr.ST7612 IGSF3 (probe ILMN_1704353): 8.50E-01
  AveExpr.ST7612 ITGB1 (probe ILMN_1714820): 7.06E-01
  AveExpr.ST7612 ITPKA (probe ILMN_1776516): 7.10E-01
  AveExpr.ST7612 JAK1 (probe ILMN_1793384): 7.91E-01
  AveExpr.ST7612 KLHL5 (probe ILMN_1706687): 8.05E-01
  AveExpr.ST7612 KLRAQ1 (probe ILMN_3271092): 7.11E-01
  AveExpr.ST7612 LCMT1 (probe ILMN_1688452): 7.21E-01
  AveExpr.ST7612 LCMT1 (probe ILMN_2336186): 7.52E-01
  AveExpr.ST7612 LMNA (probe ILMN_1737394): 7.98E-01
  AveExpr.ST7612 LOC151162 (probe ILMN_3238058): 7.72E-01
  AveExpr.ST7612 LOC253039 (probe ILMN_3236498): 8.10E-01
  AveExpr.ST7612 LOC283683 (probe ILMN_1659327): 8.30E-01
  AveExpr.ST7612 LOC388588 (probe ILMN_1749834): 7.07E-01
  AveExpr.ST7612 LOC654191 (probe ILMN_1762308): 7.84E-01
  AveExpr.ST7612 LOC727935 (probe ILMN_1691616): 7.14E-01
  AveExpr.ST7612 LOC728014 (probe ILMN_1711699): 8.58E-01
  AveExpr.ST7612 LOC729495 (probe ILMN_3297510): 7.45E-01
  AveExpr.ST7612 LOC730101 (probe ILMN_3305735): 7.41E-01
  AveExpr.ST7612 LOC730415 (probe ILMN_3228688): 6.95E-01
  AveExpr.ST7612 LOC731314 (probe ILMN_1785756): 8.31E-01
  AveExpr.ST7612 LOC100128163 (probe ILMN_3182893): 7.83E-01
  AveExpr.ST7612 LOC100131727 (probe ILMN_3292990): 7.73E-01
  AveExpr.ST7612 LOC100133583 (probe ILMN_3214389): 8.94E-01
  AveExpr.ST7612 LOC100133678 (probe ILMN_3249667): 8.11E-01
  AveExpr.ST7612 LOC100134361 (probe ILMN_3241081): 8.59E-01
  AveExpr.ST7612 LRCH4 (probe ILMN_2157075): 8.54E-01
  AveExpr.ST7612 LRRC1 (probe ILMN_1755383): 7.83E-01
  AveExpr.ST7612 LTA4H (probe ILMN_1690342): 7.50E-01
  AveExpr.ST7612 LYRM5 (probe ILMN_1744534): 7.90E-01
  AveExpr.ST7612 LYSMD4 (probe ILMN_2159859): 6.95E-01
  AveExpr.ST7612 MAP1LC3B (probe ILMN_1703244): 7.73E-01
  AveExpr.ST7612 MAP2K1 (probe ILMN_1694240): 7.15E-01
  AveExpr.ST7612 MAPRE2 (probe ILMN_1695276): 7.72E-01
  AveExpr.ST7612 MARCKSL1 (probe ILMN_1714433): 8.47E-01
  AveExpr.ST7612 MAST3 (probe ILMN_1738749): 7.21E-01
  AveExpr.ST7612 MNS1 (probe ILMN_2157240): 7.07E-01
  AveExpr.ST7612 MTE (probe ILMN_2136089): 8.56E-01
  AveExpr.ST7612 MYBL1 (probe ILMN_3241046): 7.69E-01
